Where a name gives a salt, the structure may show the parent alone.
target: CRBN-DDB1 (Homo sapiens (Human), UniProt Q96SW2); experiment: Fluorescence polarization (FP) assay for compound ligand binding to CRBN-DDB1; conditions: FP displacement of (−)-Thalidomide-Alexa Fluor or Pomalidomide-fluorescein probe; 400 nM CRBN-DDB1, 5 nM probe; Additional Compounds of the Present Invention
Procedure: Measuring compound ligand binding to CRBN-DDB1 was carried out using an established sensitive and quantitative in vitro fluorescence polarization (FP) based binding assay. […] Compounds were dispensed from serially diluted DMSO stock into black 384-well compatible fluorescence polarization plates using an Echo acoustic dispenser. Compound binding to CRBN-DDB1 was measured by displacement of either a (−)-Thalidomide-Alexa Fluor® or Pomalidomide-fluorescein conjugated probe dye. […] Matching control wells excluding CRBN-DDB1 were used to correct for background fluorescence. Plates were read on an Envision plate reader with appropriate FP filter sets. The corrected S (perpendicular) and P (parallel) values were used to calculate fluorescence polarization (FP) with the following equation: […]

Sequence of CRBN-DDB1 (Q96SW2 whole entry): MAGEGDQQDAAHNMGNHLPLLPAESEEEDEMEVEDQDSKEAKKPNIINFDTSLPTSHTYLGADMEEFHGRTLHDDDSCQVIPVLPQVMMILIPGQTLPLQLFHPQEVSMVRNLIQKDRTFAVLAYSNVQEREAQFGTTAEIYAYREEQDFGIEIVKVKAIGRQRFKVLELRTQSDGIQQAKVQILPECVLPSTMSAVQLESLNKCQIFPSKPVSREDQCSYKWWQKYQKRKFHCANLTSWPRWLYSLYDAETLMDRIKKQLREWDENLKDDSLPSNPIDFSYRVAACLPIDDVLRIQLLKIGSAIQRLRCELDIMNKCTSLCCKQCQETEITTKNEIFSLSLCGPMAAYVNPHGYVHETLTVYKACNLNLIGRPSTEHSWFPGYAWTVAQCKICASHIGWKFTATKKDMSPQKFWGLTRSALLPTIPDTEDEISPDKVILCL
Sequence of CRBN-DDB1 (Q16531 whole entry partner): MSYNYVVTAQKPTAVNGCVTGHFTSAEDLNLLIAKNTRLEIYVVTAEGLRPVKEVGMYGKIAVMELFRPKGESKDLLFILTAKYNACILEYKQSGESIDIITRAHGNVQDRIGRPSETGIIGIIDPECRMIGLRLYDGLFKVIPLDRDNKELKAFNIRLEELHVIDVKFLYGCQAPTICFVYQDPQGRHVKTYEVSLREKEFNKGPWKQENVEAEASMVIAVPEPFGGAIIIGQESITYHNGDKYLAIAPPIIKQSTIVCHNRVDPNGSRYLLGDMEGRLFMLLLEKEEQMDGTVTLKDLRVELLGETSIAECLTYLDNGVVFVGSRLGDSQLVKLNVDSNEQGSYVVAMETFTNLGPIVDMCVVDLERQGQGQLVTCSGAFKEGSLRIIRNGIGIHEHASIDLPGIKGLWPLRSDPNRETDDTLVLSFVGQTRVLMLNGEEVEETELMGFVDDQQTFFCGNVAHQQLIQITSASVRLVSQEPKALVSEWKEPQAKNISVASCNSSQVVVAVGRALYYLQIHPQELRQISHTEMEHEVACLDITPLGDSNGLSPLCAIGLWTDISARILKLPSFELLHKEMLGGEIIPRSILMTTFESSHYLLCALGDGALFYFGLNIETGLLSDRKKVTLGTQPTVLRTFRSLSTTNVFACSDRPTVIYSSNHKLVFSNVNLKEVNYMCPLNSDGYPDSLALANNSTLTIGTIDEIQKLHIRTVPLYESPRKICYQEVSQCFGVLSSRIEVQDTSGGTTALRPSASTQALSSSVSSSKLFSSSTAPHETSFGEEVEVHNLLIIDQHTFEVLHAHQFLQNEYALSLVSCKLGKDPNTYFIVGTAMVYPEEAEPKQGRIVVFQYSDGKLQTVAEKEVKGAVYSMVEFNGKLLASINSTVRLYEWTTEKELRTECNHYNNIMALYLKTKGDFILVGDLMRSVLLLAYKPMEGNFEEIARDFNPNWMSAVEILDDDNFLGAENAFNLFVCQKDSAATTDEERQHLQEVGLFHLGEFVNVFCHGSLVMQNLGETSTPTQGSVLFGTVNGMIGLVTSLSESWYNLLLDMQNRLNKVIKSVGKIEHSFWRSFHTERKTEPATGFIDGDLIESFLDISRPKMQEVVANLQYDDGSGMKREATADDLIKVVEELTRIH

Row | Compound | Kd [µM]
1 | CC(C)(C)OC(=O)N1CCN(c2ccc(OC3CCC(=O)NC3=O)cc2)CC1 (stereo not drawn) [Compound 132, 4-[4-(2,6-Dioxo-piperidin-3-yloxy)-phenyl]-piperazine-1-carboxylic acid tert-butyl ester] | < 10
2 | O=C1CCC(Oc2ccc(N3CCNCC3)cc2)C(=O)N1 (stereo not drawn) [Compound 133, 3-(4-Piperazin-1-yl-phenoxy)-piperidine-2,6-dione hydrochloride] | < 10
3 | O=C1CCC(OC2CCN(c3ccccc3)CC2)C(=O)N1 (stereo not drawn) [Compound 134, 3-(1-Phenyl-piperidin-4-yloxy)-piperidine-2,6-dione] | > 100
4 | O=C1CCC(Oc2ccc3ccccc3c2)C(=O)N1 (stereo not drawn) [Compound 135] | < 10
5 | O=C1CCC(Oc2ccccc2C(=O)N2CCCC2)C(=O)N1 (stereo not drawn) [Compound 136] | > 100
6 | CCc1ccc(OC2CCC(=O)NC2=O)cc1 (stereo not drawn) [Compound 137] | < 10
7 | N#Cc1ccc2cc(OC3CCC(=O)NC3=O)ccc2c1 (stereo not drawn) [Compound 138] | < 10
8 | N#Cc1ccc(-c2ccc(OC3CCC(=O)NC3=O)cc2)cc1 (stereo not drawn) [Compound 139] | < 10
9 | Cn1ccc2cc(OC3CCC(=O)NC3=O)ccc21 (stereo not drawn) [Compound 140] | < 10
10 | CCOc1cccc(OC2CCC(=O)NC2=O)c1 (stereo not drawn) [Compound 141] | < 10
11 | CC1(C)Cc2cccc(OC3CCC(=O)NC3=O)c2O1 (stereo not drawn) [Compound 145] | < 10
12 | O=C1CCC(Oc2cccc3cccnc23)C(=O)N1 (stereo not drawn) [Compound 147] | < 10
13 | O=C1CCC(Oc2ccc3c(c2)CCCC3=O)C(=O)N1 (stereo not drawn) [Compound 148] | < 10
14 | O=C1CCC(Oc2ccc3c(c2)OCO3)C(=O)N1 (stereo not drawn) [Compound 149] | < 10
15 | C#Cc1cccc(OC2CCC(=O)NC2=O)c1 (stereo not drawn) [Compound 150] | < 10
16 | CN(C)c1cccc(OC2CCC(=O)NC2=O)c1 (stereo not drawn) [Compound 151] | < 10
17 | O=C1CCC(Oc2ccc(C3CCCC3)cc2)C(=O)N1 (stereo not drawn) [Compound 152] | < 10

same assay, conditions: FP displacement of (−)-Thalidomide-Alexa Fluor or Pomalidomide-fluorescein probe; 400 nM CRBN-DDB1, 5 nM probe; Compounds of the Present Invention

Row | Compound | Kd [µM]
18 | CN(c1ccccc1)C1CCC(=O)NC1=O (stereo not drawn) [Compound 1] | < 10
19 | O=C1CCC(Nc2cccc(-c3ccccc3)c2)C(=O)N1 (stereo not drawn) [Compound 3] | < 10
20 | COc1cc(Cl)c(C)cc1NC1CCC(=O)NC1=O (stereo not drawn) [Compound 4] | < 10
21 | O=C1CCC(Nc2ccccc2-c2ccccc2)C(=O)N1 (stereo not drawn) [Compound 5] | < 10
22 | O=C1CCC(Nc2ccc(-c3ccccc3)cc2)C(=O)N1 (stereo not drawn) [Compound 6] | < 10
23 | COc1ccc(NC2CCC(=O)NC2=O)cc1F (stereo not drawn) [Compound 7] | < 10
24 | O=C1CCC(Nc2cccc(F)c2)C(=O)N1 (stereo not drawn) [Compound 9] | < 10
25 | COc1cc(F)ccc1NC1CCC(=O)NC1=O (stereo not drawn) [Compound 10] | < 10
26 | COc1ccc(NC2CCC(=O)NC2=O)c(F)c1 (stereo not drawn) [Compound 11] | < 10
27 | Cc1ccc(NC2CCC(=O)NC2=O)cc1C#N (stereo not drawn) [Compound 12] | < 10
28 | COc1cccc(NC2CCC(=O)NC2=O)c1 (stereo not drawn) [Compound 13] | < 10
29 | COc1ccccc1NC1CCC(=O)NC1=O (stereo not drawn) [Compound 15] | < 10
30 | COc1cccc(N(C)C2CCC(=O)NC2=O)c1 (stereo not drawn) [Compound 16] | < 10
31 | Cc1cccc(N(C)C2CCC(=O)NC2=O)c1 (stereo not drawn) [Compound 18] | < 10
32 | O=C1CCC(Nc2cc(Cl)ccc2O)C(=O)N1 (stereo not drawn) [Compound 19] | < 10
33 | COc1ccc(N(C)C2CCC(=O)NC2=O)cc1 (stereo not drawn) [Compound 20] | < 10
34 | O=C1CCC(Nc2cccc(-c3ccccn3)c2)C(=O)N1 (stereo not drawn) [Compound 22] | < 10
35 | O=C1CCC(Nc2ccccc2Oc2ccccc2)C(=O)N1 (stereo not drawn) [Compound 23] | < 10
36 | O=C1CCC(Nc2ccc(C(F)(F)F)cc2)C(=O)N1 (stereo not drawn) [Compound 26] | < 10
37 | O=C1CCC(Nc2ccc(CN3CCOCC3)cc2)C(=O)N1 (stereo not drawn) [Compound 27] | < 10
38 | O=C1CCC(Nc2ccc(Oc3ccccc3)cc2)C(=O)N1 (stereo not drawn) [Compound 28] | < 10

Row | Compound | Kd [µM]
39 | COc1cc(NC2CCC(=O)NC2=O)cc(C(F)(F)F)c1 (stereo not drawn) [Compound 29] | < 10
40 | O=C1CCC(Nc2cccc(Oc3ccccc3)c2)C(=O)N1 (stereo not drawn) [Compound 30] | < 10
41 | CCCOc1ccc(NC2CCC(=O)NC2=O)cc1 (stereo not drawn) [Compound 31] | < 10
42 | CN(c1ccc(Br)cc1)C1CCC(=O)NC1=O (stereo not drawn) [Compound 32] | < 10
43 | CN(c1cccc(F)c1)C1CCC(=O)NC1=O (stereo not drawn) [Compound 33] | < 10
44 | CN(c1cccc(Cl)c1)C1CCC(=O)NC1=O (stereo not drawn) [Compound 34] | < 10
45 | O=C1CCC(Nc2cccc(C(F)(F)F)c2)C(=O)N1 (stereo not drawn) [Compound 35] | < 10
46 | COc1ccc(NC2CCC(=O)NC2=O)c(C)c1 (stereo not drawn) [Compound 36] | < 10
47 | O=C1CCC(Nc2ccc(Cl)cc2)C(=O)N1 (stereo not drawn) [Compound 37] | < 10
48 | Cc1ccc(NC2CCC(=O)NC2=O)cc1 (stereo not drawn) [Compound 38] | < 10
49 | O=C1CCC(Nc2cccc(-c3cnco3)c2)C(=O)N1 (stereo not drawn) [Compound 39] | < 10
50 | O=C1CCC(Nc2cccc(Cl)c2)C(=O)N1 (stereo not drawn) [Compound 40] | < 10
51 | CC(C)(C)c1ccccc1NC1CCC(=O)NC1=O (stereo not drawn) [Compound 41] | < 10
52 | COc1ccc(C)cc1NC1CCC(=O)NC1=O (stereo not drawn) [Compound 42] | < 10
53 | O=C1CCC(Nc2ccc(F)cc2Cl)C(=O)N1 (stereo not drawn) [Compound 43] | < 10
54 | COc1ccc(Cl)c(NC2CCC(=O)NC2=O)c1 (stereo not drawn) [Compound 44] | < 10
55 | O=C1CCC(Nc2cc(F)ccc2Cl)C(=O)N1 (stereo not drawn) [Compound 45] | < 10
56 | COc1ccc(NC2CCC(=O)NC2=O)cc1Cl (stereo not drawn) [Compound 46] | < 10
57 | COc1cc(Cl)ccc1NC1CCC(=O)NC1=O (stereo not drawn) [Compound 47] | < 10
58 | COc1ccc(Cl)cc1NC1CCC(=O)NC1=O (stereo not drawn) [Compound 48] | < 10
59 | O=C1CCC(Nc2ccccc2Cl)C(=O)N1 (stereo not drawn) [Compound 49] | < 10

Row | Compound | Kd [µM]
60 | Cc1ccccc1NC1CCC(=O)NC1=O (stereo not drawn) [Compound 50] | < 10
61 | Cn1ccc2cc(NC3CCC(=O)NC3=O)ccc21 (stereo not drawn) [Compound 51] | < 10
62 | COc1ccc(NC2CCC(=O)NC2=O)cc1 (stereo not drawn) [Compound 52] | < 10
63 | O=C1CCC(Nc2ccccc2F)C(=O)N1 (stereo not drawn) [Compound 53] | < 10
64 | O=C1CCC(Nc2c(F)cccc2Cl)C(=O)N1 (stereo not drawn) [Compound 54] | < 10
65 | O=C1CCC(Nc2ccccc2OC(F)F)C(=O)N1 (stereo not drawn) [Compound 55] | < 10
66 | N#Cc1cccc(NC2CCC(=O)NC2=O)c1 (stereo not drawn) [Compound 56] | < 10
67 | CN(c1cccc(Br)c1)C1CCC(=O)NC1=O (stereo not drawn) [Compound 57] | < 10
68 | CN(c1cccc(C(F)(F)F)c1)C1CCC(=O)NC1=O (stereo not drawn) [Compound 58] | < 10
69 | CN(c1ccc(C(F)(F)F)cc1)C1CCC(=O)NC1=O (stereo not drawn) [Compound 59] | < 10
70 | CN(c1ccc(Cl)c(Cl)c1)C1CCC(=O)NC1=O (stereo not drawn) [Compound 60] | < 10
71 | Cc1ccccc1N(C)C1CCC(=O)NC1=O (stereo not drawn) [Compound 61] | < 10
72 | COc1c(Cl)cccc1NC1CCC(=O)NC1=O (stereo not drawn) [Compound 62] | < 10
73 | O=C1CCC(Nc2cccc(N3CCOCC3)c2)C(=O)N1 (stereo not drawn) [Compound 64] | < 10
74 | Cc1cccc(NC2CCC(=O)NC2=O)c1C#N (stereo not drawn) [Compound 65] | < 10
75 | CN1CCN(c2ccc(NC3CCC(=O)NC3=O)cc2)CC1 (stereo not drawn) [Compound 66] | < 10
76 | O=C1CCC(Nc2ccc(N3CCOCC3)cc2)C(=O)N1 (stereo not drawn) [Compound 67] | < 10
77 | Cc1ccc(C#N)cc1NC1CCC(=O)NC1=O (stereo not drawn) [Compound 68] | > 100
78 | COc1ccc(NC2CCC(=O)NC2=O)c(OC)c1 (stereo not drawn) [Compound 70] | < 10
79 | O=C1CCC(Nc2cccc3ccccc23)C(=O)N1 (stereo not drawn) [Compound 77] | < 10
80 | CC(C)(C)OC(=O)N1CCc2cc(NC3CCC(=O)NC3=O)ccc2C1 (stereo not drawn) [Compound 79] | < 10

Row | Compound | Kd [µM]
81 | CC(C)(C)OC(=O)N1CCC(c2ccc(NC3CCC(=O)NC3=O)cc2)CC1 (stereo not drawn) [Compound 81] | < 10
82 | CC(C)(C)OC(=O)N1CCN(c2cccc(NC3CCC(=O)NC3=O)c2)CC1 (stereo not drawn) [Compound 82] | < 10
83 | O=C1CCC(Nc2ccc(C3CCNCC3)cc2)C(=O)N1 (stereo not drawn) [Compound 85] | < 10
84 | O=C1CCC(Nc2cccc(N3CCNCC3)c2)C(=O)N1 (stereo not drawn) [Compound 86] | < 10
85 | CN(c1cccc(N2CCN(C(=O)OC(C)(C)C)CC2)c1)C1CCC(=O)NC1=O (stereo not drawn) [Compound 88] | < 10
86 | CC(C)(C)OC(=O)n1cc(C#N)c(NC2CCC(=O)NC2=O)n1 (stereo not drawn) [Compound 95] | > 100
87 | N#Cc1c[nH]nc1NC1CCC(=O)NC1=O (stereo not drawn) [Compound 96] | > 100
88 | CN(C1COC1)C1CCC(=O)NC1=O (stereo not drawn) [Compound 97] | > 100
89 | O=C1CCC(NC2CC(=O)N(c3ccccc3)C2)C(=O)N1 (stereo not drawn) [Compound 99] | > 100
90 | CN(C1CNC1)C1CCC(=O)NC1=O (stereo not drawn) [Compound 101] | > 100
91 | CN1CC(N(C)C2CCC(=O)NC2=O)C1 (stereo not drawn) [Compound 102] | > 100
92 | CN1CCC(N(C)C2CCC(=O)NC2=O)CC1=O (stereo not drawn) [Compound 106] | > 100
93 | CN(CC(=O)O)C1CCC(=O)NC1=O (stereo not drawn) [Compound 107] | > 100
94 | CNC(=O)CN(C)C1CCC(=O)NC1=O (stereo not drawn) [Compound 109] | > 100
95 | CC(C)(C)OC(=O)N1CCN(C2=CC(=O)NC2=O)CC1 [Compound 111] | > 100
96 | O=C1C=C(Nc2ccccc2)C(=O)N1 [Compound 112] | > 100
97 | O=C1CCC(N2CCc3cccnc32)C(=O)N1 (stereo not drawn) [Compound 118] | > 100
98 | COC(=O)c1cccnc1NC1CCC(=O)NC1=O (stereo not drawn) [Compound 122] | > 100
99 | CN1CCN(c2ccc(OC3CCC(=O)NC3=O)cc2)CC1 (stereo not drawn) [Compound 126] | < 10

Source: patent publication US20230279023A1, “N/O-Linked Degrons and Degronimers for Protein Degradation” (C4 Therapeutics, Inc., priority 2019, published 2023)
